In ChEMBL document CHEMBL4823254, “Tetrahydroquinoline-Capped Histone Deacetylase 6 Inhibitor SW-101 Ameliorates Pathological Phenotypes in a Charcot-Marie-Tooth Type 2A Mouse Model” (J Med Chem, 2021):
Calls of active or inactive are those of the source. The calls are words filed in the database; no cut-off is given here.

How the values were obtained:
Mus musculus = assay: Neuroprotective activity in hMFN2-induced CMT2A transgenic mouse model assessed as increase in motor performance at 20 mg/kg, ip qd administered for 26 weeks when treated prior with compound dissolved in PBS/PEG400/Tween80/EtOH (50/35/10/5) wt% as vehicle by rotarod test; type: functional, organism-based
[1] = target: T1, Protein deacetylase HDAC6 (Homo sapiens, UniProt Q9UBN7)
T1 sequence (Q9UBN7 whole entry): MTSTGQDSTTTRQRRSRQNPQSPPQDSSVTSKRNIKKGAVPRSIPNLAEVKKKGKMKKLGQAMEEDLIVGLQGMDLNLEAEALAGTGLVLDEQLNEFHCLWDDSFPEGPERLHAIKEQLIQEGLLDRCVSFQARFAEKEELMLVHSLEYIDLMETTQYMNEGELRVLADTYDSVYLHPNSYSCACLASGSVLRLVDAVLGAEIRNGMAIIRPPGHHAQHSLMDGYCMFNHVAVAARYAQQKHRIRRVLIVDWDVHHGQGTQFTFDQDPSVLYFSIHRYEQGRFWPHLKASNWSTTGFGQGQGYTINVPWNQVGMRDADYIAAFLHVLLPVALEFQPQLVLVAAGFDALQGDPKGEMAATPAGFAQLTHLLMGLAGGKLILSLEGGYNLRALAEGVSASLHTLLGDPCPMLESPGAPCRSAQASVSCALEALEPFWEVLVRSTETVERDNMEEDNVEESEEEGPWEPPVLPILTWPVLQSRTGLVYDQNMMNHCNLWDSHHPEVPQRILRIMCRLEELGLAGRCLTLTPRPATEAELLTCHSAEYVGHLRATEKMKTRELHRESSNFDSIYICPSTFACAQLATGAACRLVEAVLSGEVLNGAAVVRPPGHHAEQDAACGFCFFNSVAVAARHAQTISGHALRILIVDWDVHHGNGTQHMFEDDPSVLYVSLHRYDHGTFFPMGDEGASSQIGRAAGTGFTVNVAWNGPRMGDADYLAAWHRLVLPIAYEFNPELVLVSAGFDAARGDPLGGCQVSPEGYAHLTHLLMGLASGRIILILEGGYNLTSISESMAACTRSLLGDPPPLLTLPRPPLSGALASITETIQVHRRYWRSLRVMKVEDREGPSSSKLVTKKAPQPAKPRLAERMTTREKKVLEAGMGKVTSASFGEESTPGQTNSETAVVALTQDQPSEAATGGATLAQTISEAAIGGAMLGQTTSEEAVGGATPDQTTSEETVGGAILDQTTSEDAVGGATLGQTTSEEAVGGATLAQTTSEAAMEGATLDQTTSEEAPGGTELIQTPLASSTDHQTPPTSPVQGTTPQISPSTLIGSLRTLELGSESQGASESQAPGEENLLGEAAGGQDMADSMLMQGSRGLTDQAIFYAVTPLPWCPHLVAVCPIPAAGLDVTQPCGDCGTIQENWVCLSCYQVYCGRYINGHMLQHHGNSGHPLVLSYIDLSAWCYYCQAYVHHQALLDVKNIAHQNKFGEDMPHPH
Description: Inhibition of Nanoluc-fused HDAC6 CD2 (unknown origin) expressed in HEK293 cells incubated for 2 hrs by NANOBRET assay

[2] = target: T2, Protein deacetylase HDAC6 (Mus musculus) (UniProt Q9Z2V5); assay: In vivo inhibition of HDAC6 in wild type mouse assessed as increase in alpha-tubulin acetylation in sciatic nerve tissue at 10 to 20 mg/kg, ip measured after 24 hrs by immunoblot analysis; type: functional, organism-based; conditions: dose 10-20 mg/kg
T2 sequence (whole entry): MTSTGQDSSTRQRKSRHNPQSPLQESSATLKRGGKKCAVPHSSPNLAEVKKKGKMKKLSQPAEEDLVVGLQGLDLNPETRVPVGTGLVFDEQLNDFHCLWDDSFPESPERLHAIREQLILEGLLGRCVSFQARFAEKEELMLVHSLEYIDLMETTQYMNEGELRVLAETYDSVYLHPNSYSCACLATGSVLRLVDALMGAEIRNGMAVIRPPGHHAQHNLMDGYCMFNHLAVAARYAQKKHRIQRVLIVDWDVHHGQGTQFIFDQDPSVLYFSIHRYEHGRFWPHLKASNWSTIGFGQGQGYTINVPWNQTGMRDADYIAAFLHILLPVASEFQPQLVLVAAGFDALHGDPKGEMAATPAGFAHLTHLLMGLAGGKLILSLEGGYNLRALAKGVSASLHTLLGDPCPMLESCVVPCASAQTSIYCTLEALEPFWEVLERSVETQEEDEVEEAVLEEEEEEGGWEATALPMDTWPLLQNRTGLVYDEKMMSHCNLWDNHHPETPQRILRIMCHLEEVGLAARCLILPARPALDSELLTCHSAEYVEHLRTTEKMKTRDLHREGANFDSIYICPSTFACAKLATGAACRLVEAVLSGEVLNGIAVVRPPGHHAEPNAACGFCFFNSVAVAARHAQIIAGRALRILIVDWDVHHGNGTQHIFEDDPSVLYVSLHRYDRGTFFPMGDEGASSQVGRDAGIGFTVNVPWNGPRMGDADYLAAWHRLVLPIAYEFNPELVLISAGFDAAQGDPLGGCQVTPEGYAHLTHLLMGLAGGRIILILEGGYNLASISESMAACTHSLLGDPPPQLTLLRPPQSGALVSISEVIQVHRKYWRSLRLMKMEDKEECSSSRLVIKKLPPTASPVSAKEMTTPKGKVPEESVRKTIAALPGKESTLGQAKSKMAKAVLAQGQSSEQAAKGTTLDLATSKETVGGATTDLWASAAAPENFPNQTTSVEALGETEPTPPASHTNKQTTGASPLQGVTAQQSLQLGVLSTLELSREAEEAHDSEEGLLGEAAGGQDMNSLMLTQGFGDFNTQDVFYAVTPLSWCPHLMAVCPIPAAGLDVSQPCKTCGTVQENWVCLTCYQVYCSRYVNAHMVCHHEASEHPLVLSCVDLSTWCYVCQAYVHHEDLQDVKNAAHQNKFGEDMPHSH

[3] = Genotoxicity in Salmonella typhimurium TA100 at 5 to 100 uM in presence of liver S9 fraction by Ames test; type: toxicity; conditions: salmonella enterica subsp. enterica serovar typhimurium, s9, 100 µM; dose 5-100 µM
[4] = target: T2, Protein deacetylase HDAC6 (Mus musculus); assay: (§1) In vivo inhibition of HDAC6 in hMFN2-induced CMT2A transgenic mouse model assessed as increase in acetylated tubulin in distal sciatic nerve tissue at 20 mg/kg, ip qd administered for 12 weeks followed by treatment with compound dissolved in PBS/PEG400/Tween80/EtOH (50/35/10/5) wt% as vehicle by Western blot analysis; type: functional, organism-based
[5] = target: T2, Protein deacetylase HDAC6 (Mus musculus); assay: In vivo inhibition of HDAC6 in wild type mouse assessed as increase in alpha-tubulin acetylation in sciatic nerve tissue at 10 to 20 mg/kg, ip measured after 6 hrs by immunoblot analysis relative to control; type: functional, organism-based; design: scale not given: the % may be the effect or the level left; conditions: dose 10-20 mg/kg
[6] = target: T2, Protein deacetylase HDAC6 (Mus musculus); assay: as §1, with “22” for “12”, “when treated prior” for “followed by treatment”; type: functional, organism-based
Histone deacetylase 5 = Histone deacetylase 5 (Homo sapiens, UniProt Q9UQL6); assay: Inhibition of recombinant human HDAC5 using Boc-Lys(TFA)-AMC as substrate preincubated for 10 mins followed by substrate addition and measured after 30 mins by fluorescence-based assay
Histone deacetylase 5, sequence (Q9UQL6 whole entry): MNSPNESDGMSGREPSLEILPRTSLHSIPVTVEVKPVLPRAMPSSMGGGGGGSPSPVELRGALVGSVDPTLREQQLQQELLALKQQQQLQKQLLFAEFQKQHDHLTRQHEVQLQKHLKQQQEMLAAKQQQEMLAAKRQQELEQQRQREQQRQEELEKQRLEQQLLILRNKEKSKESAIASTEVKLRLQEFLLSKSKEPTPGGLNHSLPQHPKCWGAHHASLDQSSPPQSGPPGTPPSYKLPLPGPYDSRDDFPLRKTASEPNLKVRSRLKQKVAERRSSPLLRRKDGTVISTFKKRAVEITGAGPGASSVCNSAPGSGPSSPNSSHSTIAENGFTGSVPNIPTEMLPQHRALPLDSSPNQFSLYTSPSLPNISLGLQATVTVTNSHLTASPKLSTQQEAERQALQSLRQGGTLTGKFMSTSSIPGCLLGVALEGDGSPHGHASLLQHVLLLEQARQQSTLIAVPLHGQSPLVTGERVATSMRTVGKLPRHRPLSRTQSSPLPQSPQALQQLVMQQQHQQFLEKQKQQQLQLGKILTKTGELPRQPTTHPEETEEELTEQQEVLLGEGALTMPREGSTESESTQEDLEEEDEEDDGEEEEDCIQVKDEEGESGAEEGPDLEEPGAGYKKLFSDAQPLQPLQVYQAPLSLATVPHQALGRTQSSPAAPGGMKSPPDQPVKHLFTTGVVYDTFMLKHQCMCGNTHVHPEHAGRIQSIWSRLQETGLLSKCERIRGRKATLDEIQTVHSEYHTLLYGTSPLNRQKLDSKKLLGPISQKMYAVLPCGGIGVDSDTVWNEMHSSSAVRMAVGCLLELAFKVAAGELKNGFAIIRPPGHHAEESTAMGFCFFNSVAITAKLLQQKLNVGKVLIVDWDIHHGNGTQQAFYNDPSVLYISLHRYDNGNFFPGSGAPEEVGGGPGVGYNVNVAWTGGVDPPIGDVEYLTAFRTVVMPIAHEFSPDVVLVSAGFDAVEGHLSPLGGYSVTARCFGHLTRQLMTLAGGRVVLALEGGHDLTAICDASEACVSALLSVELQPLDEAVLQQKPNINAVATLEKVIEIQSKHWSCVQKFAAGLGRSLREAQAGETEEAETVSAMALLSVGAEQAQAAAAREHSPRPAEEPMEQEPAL

## NC(=O)c1ccc2c(c1)CCCN2Cc1ccc(C(=O)NO)cc1
Mus musculus
  Activity: Active
[1]
  IC50: 1370 nM
[2]
  inhibition: Active
[3]
  Activity: Non-Toxic
[4]
  inhibition: Active
[5]
  Activity: 150%
[6]
  inhibition: inactive
Histone deacetylase 5
  IC50: 276 nM
